What was measured:
[1] = molecular target: T1, Gonadotropin-releasing hormone receptor (Rattus norvegicus, UniProt P30969); experiment: Inhibition of [125I]buserelin to GnRH receptor in rat pituitary membranes.; type: cell membranes, Membrane
T1 sequence (P30969 whole entry): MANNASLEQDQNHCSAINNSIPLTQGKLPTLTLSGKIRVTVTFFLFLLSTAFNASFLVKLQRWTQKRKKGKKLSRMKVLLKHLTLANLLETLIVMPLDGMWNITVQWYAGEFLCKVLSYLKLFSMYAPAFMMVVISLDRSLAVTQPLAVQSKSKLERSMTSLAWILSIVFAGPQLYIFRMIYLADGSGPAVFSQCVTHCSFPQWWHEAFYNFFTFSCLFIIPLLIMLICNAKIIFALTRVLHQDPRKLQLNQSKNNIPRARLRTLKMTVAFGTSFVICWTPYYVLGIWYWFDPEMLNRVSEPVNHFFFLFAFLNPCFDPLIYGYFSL

[2] = molecular target: T2, Gonadotropin-releasing hormone receptor (Rattus norvegicus) (UniProt P30969); experiment: Inhibitory activity at GnRH receptor in rat pituitary membranes.; type: cell membranes; set-up: concentration or dose not given beside the values; conditions: concentration not given here
T2 sequence (whole entry): T1 sequence (P30969 whole entry)

Row | IC50 [1] [nM] | inhibition [2] [%] | Structure (SMILES)
1 | 300 | – | Cc1cc(C)cc(-c2c(OCC3CCCN(C)C3)c3ccc(Cl)cc3[nH]c2=O)c1 (stereo not drawn)
2 | – | < 50 | Cc1cc(C)cc(-c2c(O)nc3cccc(Cl)c3c2OCC2CCCN(C)C2)c1 (stereo not drawn)
3 | 4000 | – | Cc1cc(C)cc(-c2c(O)nc3cc(Cl)ccc3c2OCC2CCCCN2C)c1 (stereo not drawn)
4 | 1400 | – | Cc1cc(C)cc(-c2c(O)nc3cc(Cl)ccc3c2OCC2CN(C)CCO2)c1 (stereo not drawn)
5 | – | < 50 | Oc1nc2cc(Cl)ccc2c(OCc2ccccc2)c1-c1ccccc1
6 | – | < 50 | Oc1nc2cc(Cl)ccc2c(OCc2ccc3ccccc3n2)c1-c1ccccc1
7 | – | < 50 | Cc1cc(C)cc(-c2c(O)nc3ccc([N+](=O)[O-])cc3c2OCC2CCCN(C)C2)c1 (stereo not drawn)
8 | 500 | – | Cc1cc(C)cc(-c2c(O)nc3cc(Cl)ccc3c2OCC2CCN(C)C2)c1 (stereo not drawn)
9 | – | < 50 | Oc1nc2cc(Cl)ccc2c(OCc2cccnc2)c1-c1ccccc1
10 | – | < 50 | Cc1cc(C)cc(-c2c(O)nc3ccc(Cl)cc3c2OCC2CCCN(C)C2)c1 (stereo not drawn)
11 | – | < 50 | Cc1cc(C)cc(-c2c(O)nc3cc(Cl)ccc3c2OCC2CCNCC2)c1
12 | 1300 | – | Cc1cc(C)cc(-c2c(OC3CCN(C)CC3)c3ccc(Cl)cc3[nH]c2=O)c1
13 | – | < 50 | COc1ccc2nc(O)c(-c3cc(C)cc(C)c3)c(OCC3CCCN(C)C3)c2c1 (stereo not drawn)
14 | 1400 | – | Cc1cc(C)cc(-c2c(O)nc3cc([N+](=O)[O-])ccc3c2OCC2CCCN(C)C2)c1 (stereo not drawn)
15 | – | < 50 | Oc1nc2cc(Cl)ccc2c(OCc2ccncc2)c1-c1ccccc1
16 | 7500 | – | Cc1cc(C)cc(-c2c(OCCCN3CCCCC3)c3ccc(Cl)cc3[nH]c2=O)c1
17 | – | < 50 | COC(=O)c1ccc2c(OCC3CCCN(C)C3)c(-c3cc(C)cc(C)c3)c(O)nc2c1 (stereo not drawn)
18 | 10000 | – | Oc1nc2cc(Cl)ccc2c(OCc2ccccn2)c1-c1ccccc1
19 | – | < 50 | CN(C)CCOc1c(-c2ccccc2)c(O)nc2cc(Cl)ccc12

Row | IC50 [1] [nM] | inhibition [2] [%] | Structure (SMILES)
20 | 200 | – | Cc1cc(C)cc(-c2c(O)nc3cc(Cl)ccc3c2OCCC2CCCN2C)c1 (stereo not drawn)
21 | 7000 | – | CN1CCCCC(Oc2c(-c3ccccc3)c(O)nc3cc(Cl)ccc23)C1 (stereo not drawn)
22 | 500 | – | Cc1cc(C)cc(-c2c(O)nc3cc(Cl)ccc3c2OCC2CCCNC2)c1 (stereo not drawn)
23 | 6300 | – | Cc1cc(C)cc(-c2c(O)nc3cc(Cl)ccc3c2OCC(C)CN(C)C)c1 (stereo not drawn)
24 | 1300 | – | Cc1cc(C)cc(-c2c(O)nc3cc(Cl)ccc3c2OCC2CCCCN(C)C2)c1 (stereo not drawn)
25 | 3900 | – | Cc1cc(C)cc(-c2c(OCC3CCCN(C)C3)c3ccc(C)cc3[nH]c2=O)c1 (stereo not drawn)
26 | – | < 50 | Cc1cc(C)cc(-c2c(O)nc3cc(F)ccc3c2OCC2CCCN(C)C2)c1 (stereo not drawn)
27 | – | < 50 | NCCCOc1c(-c2ccccc2)c(O)nc2cc(Cl)ccc12
28 | 9000 | – | CN1CCCCC1COc1c(-c2ccccc2)c(=O)[nH]c2cc(Cl)ccc12 (stereo not drawn)
29 | – | < 50 | Cc1cc(C)cc(-c2c(O)nc3ccc(C)cc3c2OCC2CCCN(C)C2)c1 (stereo not drawn)
30 | 100 | – | Cc1cc(C)cc(-c2c(OCCC3CCCCN3C)c3ccc(C(F)(F)F)cc3[nH]c2=O)c1 (stereo not drawn)
31 | 300 | – | Cc1cc(C)cc(-c2c(O)nc3cc(Cl)ccc3c2OC2CCCN(C)CC2)c1 (stereo not drawn)
32 | – | < 50 | Cc1cc(C)cc(-c2c(O)nc3c(Cl)cccc3c2OCC2CCCN(C)C2)c1 (stereo not drawn)
33 | 32 | – | Cc1cc(C)cc(-c2c(OCCC3CCCCN3C)c3cc([N+](=O)[O-])c(Cl)cc3[nH]c2=O)c1 (stereo not drawn)
34 | 150 | – | Cc1cc(C)cc(-c2c(OCCC3CCCCN3C)c3ccc(Br)cc3[nH]c2=O)c1 (stereo not drawn)
35 | 4000 | – | CN1CCCC(COc2c(-c3ccccc3)c(O)nc3cc(Cl)ccc23)C1 (stereo not drawn)
36 | 9000 | – | CN(C)CCCOc1c(-c2ccccc2)c(O)nc2cc(Cl)ccc12
37 | – | < 50 | O=C1c2ccccc2C(=O)N1CCCOc1c(-c2ccccc2)c(O)nc2cc(Cl)ccc12
38 | 200 | – | Cc1cc(C)cc(-c2c(OCCC3CCCCN3C)c3ccc(Cl)cc3[nH]c2=O)c1 (stereo not drawn)
